Test results: patent US8741836B2, “Polypeptides” (Novo Nordisk A/S, priority 2011, dated 2014)
Starred links: 1 amine or outer side, 2 acyl side, 3 side chain; linkers in the order of their positions; H or OH if unused. Positions of bridges follow the written chain, without caps; N, C: chain ends. Non-standard residues stand in square brackets, D forms with d. Residues, ends and D or L forms follow the SMILES beside them. *: point of attachment. C20 diacid = O=C(O)CCCCCCCCCCCCCCCCCCC(=O)*; C18 diacid = O=C(O)CCCCCCCCCCCCCCCCC(=O)*; γGlu = O=C(O)[C@H](CCC(=O)[*:2])N[*:1]; Orn = NCCC[C@H](N)C(=O)O; AEEA = NCCOCCOCC(=O)O

Key:
[1] = Assay (III) ThT fibrillation assay for physical stability; format: physicochemical; conditions: for ThT pH 4.0 lag time: pH 4.0, ThT fibrillation assay
In short: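 Freshly prepared, pH-adjusted formulations with 1 μM ThT incubated at 37 °C under 960 rpm orbital shaking (1 mm), fluorescence (ex 444, em 485 nm) read every 20 min. […] Peptide content before and after measured by reverse-phase HPLC against pramlintide standard.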

ad libitum fed rat = assay: Assay (I) efficacy testing on appetite (food intake) using an ad libitum fed rat model; format: in vivo, Sprague Dawley (SD) rats
In short: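 Ad libitum fed Sprague Dawley rats, 200-250 g, singly housed on reversed light cycle, got one ip, po or sc dose of 0.01-3 mg/kg just before lights off; groups of 5-8 with vehicle control. Food intake recorded hourly for 7 h, then at 24 h and sometimes 48 h; Grubbs outliers excluded.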

ThT pH 4.0 lag time (physical stability in fibrillogenesis assay) ([1]; pH 4.0) [h]	ThT pH 4.0 lag time [1] [h]	SMILES	Food intake reduction 0-24 h 3 nmol/kg (%) (ad libitum fed rat; 0-24 h)	Food intake reduction 24-48 h 3 nmol/kg (%) (ad libitum fed rat; 24-48 h)	Food intake reduction 0-24 h 30 nmol/kg (%) (ad libitum fed rat; 30 nmol/kg, 0-24 h)	Food intake reduction 24-48 h 30 nmol/kg (%) (ad libitum fed rat; 30 nmol/kg, 24-48 h)
>45	>45	CC[C@H](C)[C@H](NC(=O)[C@@H]1CCCN1C(=O)CNC(=O)[C@H](Cc1ccccc1)NC(=O)[C@H](CC(N)=O)NC(=O)[C@H](CC(N)=O)NC(=O)[C@H](CO)NC(=O)[C@H](CO)NC(=O)[C@H](Cc1c[nH]cn1)NC(=O)[C@H](Cc1c[nH]cn1)NC(=O)[C@H](CC(C)C)NC(=O)[C@H](Cc1ccccc1)NC(=O)[C@H](CCC(=O)O)NC(=O)[C@H](C)NC(=O)[C@H](CC(C)C)NC(=O)[C@H](CCCNC(=N)N)NC(=O)[C@H](CCC(N)=O)NC(=O)[C@@H](NC(=O)[C@H](C)NC(=O)[C@@H]1CSSC[C@H](NC(=O)[C@H](CCCCN)NC(=O)CC[C@H](NC(=O)CCCCCCCCCCCCCCCCC(=O)O)C(=O)O)C(=O)N[C@@H](CC(N)=O)C(=O)N[C@@H]([C@@H](C)O)C(=O)N[C@@H](C)C(=O)N[C@@H]([C@@H](C)O)C(=O)N1)[C@@H](C)O)C(=O)N[C@@H](CC(C)C)C(=O)N1CCC[C@H]1C(=O)N1CCC[C@H]1C(=O)N[C@H](C(=O)N[C@@H](CC(N)=O)C(=O)N[C@H](C(=O)NCC(=O)N[C@@H](CO)C(=O)N[C@@H](Cc1c[nH]cn1)C(=O)N[C@H](C(=O)N[C@@H](Cc1ccc(O)cc1)C(N)=O)[C@@H](C)O)C(C)C)[C@@H](C)O [Example 59, N-alpha-[(S)-4-Carboxy-4-(17-carboxyheptadecanoylamino)butyryl]-[Glu14,His17,His35]-pramlintide] ({C18 diacid-γGlu}-KCNTATCATQRLAEFLHHSSNNFGPILPPTNVGSHTY-NH2; disulfide 2-7)	59	27		
	>45	CC[C@H](C)[C@H](NC(=O)[C@@H]1CCCN1C(=O)CNC(=O)[C@H](Cc1ccccc1)NC(=O)[C@H](CC(N)=O)NC(=O)[C@H](CC(N)=O)NC(=O)[C@H](CO)NC(=O)[C@H](CO)NC(=O)[C@H](Cc1c[nH]cn1)NC(=O)[C@H](Cc1c[nH]cn1)NC(=O)[C@H](CC(C)C)NC(=O)[C@H](Cc1ccccc1)NC(=O)[C@H](CCC(=O)O)NC(=O)[C@H](C)NC(=O)[C@H](CC(C)C)NC(=O)[C@H](CCCNC(=N)N)NC(=O)[C@H](CCC(N)=O)NC(=O)[C@@H](NC(=O)[C@H](C)NC(=O)[C@@H]1CSSC[C@H](NC(=O)[C@H](CCCCN)NC(=O)CC[C@H](NC(=O)CCCCCCCCCCCCCCCCCCC(=O)O)C(=O)O)C(=O)N[C@@H](CC(N)=O)C(=O)N[C@@H]([C@@H](C)O)C(=O)N[C@@H](C)C(=O)N[C@@H]([C@@H](C)O)C(=O)N1)[C@@H](C)O)C(=O)N[C@@H](CC(C)C)C(=O)N1CCC[C@H]1C(=O)N1CCC[C@H]1C(=O)N[C@H](C(=O)N[C@@H](CC(N)=O)C(=O)N[C@H](C(=O)NCC(=O)N[C@@H](CO)C(=O)N[C@@H](CC(N)=O)C(=O)N[C@H](C(=O)N1CCC[C@H]1C(N)=O)[C@@H](C)O)C(C)C)[C@@H](C)O [Example 52, N-alpha-[(S)-4-Carboxy-4-(19-carboxynonadecanoylamino)butyryl]-[Glu14,His17,Pro37]-pramlintide] ({C20 diacid-γGlu}-KCNTATCATQRLAEFLHHSSNNFGPILPPTNVGSNTP-NH2; disulfide 2-7)	62	74		
		CC[C@H](C)[C@H](NC(=O)[C@@H]1CCCN1C(=O)CNC(=O)[C@H](Cc1ccccc1)NC(=O)[C@H](CC(N)=O)NC(=O)[C@H](CC(N)=O)NC(=O)[C@H](CO)NC(=O)[C@H](CO)NC(=O)[C@H](Cc1c[nH]cn1)NC(=O)[C@H](Cc1c[nH]cn1)NC(=O)[C@H](CC(C)C)NC(=O)[C@H](Cc1ccccc1)NC(=O)[C@H](CCC(=O)O)NC(=O)[C@H](C)NC(=O)[C@H](CC(C)C)NC(=O)[C@H](CCCNC(=N)N)NC(=O)[C@H](CCC(N)=O)NC(=O)[C@@H](NC(=O)[C@H](C)NC(=O)[C@@H]1CSSC[C@H](NC(=O)[C@H](Cc2c[nH]cn2)NC(=O)[C@H](Cc2c[nH]cn2)NC(=O)CC[C@H](NC(=O)CCCCCCCCCCCCCCCCCCC(=O)O)C(=O)O)C(=O)N[C@@H](CC(N)=O)C(=O)N[C@@H]([C@@H](C)O)C(=O)N[C@@H](C)C(=O)N[C@@H]([C@@H](C)O)C(=O)N1)[C@@H](C)O)C(=O)N[C@@H](CC(C)C)C(=O)N1CCC[C@H]1C(=O)N1CCC[C@H]1C(=O)N[C@H](C(=O)N[C@@H](CC(N)=O)C(=O)N[C@H](C(=O)NCC(=O)N[C@@H](CO)C(=O)N[C@@H](CC(N)=O)C(=O)N[C@H](C(=O)N[C@@H](Cc1ccc(O)cc1)C(N)=O)[C@@H](C)O)C(C)C)[C@@H](C)O [Example 17, N-alpha-[(S)-4-Carboxy-4-(19-carboxynonadecanoylamino)butyryl]-His-[His1,Glu14,His17]-pramlintide] ({C20 diacid-γGlu}-HHCNTATCATQRLAEFLHHSSNNFGPILPPTNVGSNTY-NH2; disulfide 3-8)	40	22		
		CC[C@H](C)[C@H](NC(=O)[C@@H]1CCCN1C(=O)CNC(=O)[C@H](Cc1ccccc1)NC(=O)[C@H](CC(N)=O)NC(=O)[C@H](CC(N)=O)NC(=O)[C@H](CO)NC(=O)[C@H](CO)NC(=O)[C@H](Cc1c[nH]cn1)NC(=O)[C@H](Cc1c[nH]cn1)NC(=O)[C@H](CC(C)C)NC(=O)[C@H](Cc1ccccc1)NC(=O)[C@H](CCC(=O)O)NC(=O)[C@H](C)NC(=O)[C@H](CC(C)C)NC(=O)[C@H](CCCNC(=N)N)NC(=O)[C@H](CCC(N)=O)NC(=O)[C@@H](NC(=O)[C@H](C)NC(=O)[C@@H]1CSSC[C@H](NC(=O)[C@H](Cc2c[nH]cn2)NC(=O)[C@H](Cc2c[nH]cn2)NC(=O)[C@H](Cc2c[nH]cn2)NC(=O)CC[C@H](NC(=O)CCCCCCCCCCCCCCCCCCC(=O)O)C(=O)O)C(=O)N[C@@H](CC(N)=O)C(=O)N[C@@H]([C@@H](C)O)C(=O)N[C@@H](C)C(=O)N[C@@H]([C@@H](C)O)C(=O)N1)[C@@H](C)O)C(=O)N[C@@H](CC(C)C)C(=O)N1CCC[C@H]1C(=O)N1CCC[C@H]1C(=O)N[C@H](C(=O)N[C@@H](CC(N)=O)C(=O)N[C@H](C(=O)NCC(=O)N[C@@H](CO)C(=O)N[C@@H](CC(N)=O)C(=O)N[C@H](C(=O)N[C@@H](Cc1ccc(O)cc1)C(N)=O)[C@@H](C)O)C(C)C)[C@@H](C)O [Example 11, N-alpha-[(S)-4-Carboxy-4-(19-carboxynonadecanoylamino)butyryl]-His-His-[His1,Glu14,His17]-pramlintide] ({C20 diacid-γGlu}-HHHCNTATCATQRLAEFLHHSSNNFGPILPPTNVGSNTY-NH2; disulfide 4-9 (inferred); C-terminus assumed)			87	92
		CC[C@H](C)[C@H](NC(=O)[C@@H]1CCCN1C(=O)CNC(=O)[C@H](Cc1ccccc1)NC(=O)[C@H](CC(N)=O)NC(=O)[C@H](CC(N)=O)NC(=O)[C@H](CO)NC(=O)[C@H](CO)NC(=O)[C@H](Cc1c[nH]cn1)NC(=O)[C@H](Cc1c[nH]cn1)NC(=O)[C@H](CC(C)C)NC(=O)[C@H](Cc1ccccc1)NC(=O)[C@H](CCC(=O)O)NC(=O)[C@H](C)NC(=O)[C@H](CC(C)C)NC(=O)[C@H](CCCNC(=N)N)NC(=O)[C@H](CCC(N)=O)NC(=O)[C@@H](NC(=O)[C@H](C)NC(=O)[C@@H]1CSSC[C@H](NC(=O)[C@H](Cc2c[nH]cn2)NC(=O)CC[C@H](NC(=O)CCCCCCCCCCCCCCCCCCC(=O)O)C(=O)O)C(=O)N[C@@H](CC(N)=O)C(=O)N[C@@H]([C@@H](C)O)C(=O)N[C@@H](C)C(=O)N[C@@H]([C@@H](C)O)C(=O)N1)[C@@H](C)O)C(=O)N[C@@H](CC(C)C)C(=O)N1CCC[C@H]1C(=O)N1CCC[C@H]1C(=O)N[C@H](C(=O)N[C@@H](CC(N)=O)C(=O)N[C@H](C(=O)NCC(=O)N[C@@H](CO)C(=O)N[C@@H](CC(N)=O)C(=O)N[C@H](C(=O)N[C@@H](Cc1ccc(O)cc1)C(N)=O)[C@@H](C)O)C(C)C)[C@@H](C)O [Example 18, N-alpha-[(S)-4-Carboxy-4-(19-carboxynonadecanoylamino)butyryl]-[His1,Glu14,His17]-pramlintide] ({C20 diacid-γGlu}-HCNTATCATQRLAEFLHHSSNNFGPILPPTNVGSNTY-NH2; disulfide 2-7)	40	32		
		CC[C@H](C)[C@H](NC(=O)[C@@H]1CCCN1C(=O)CNC(=O)[C@H](Cc1ccccc1)NC(=O)[C@H](CC(N)=O)NC(=O)[C@H](CC(N)=O)NC(=O)[C@H](CO)NC(=O)[C@H](CO)NC(=O)[C@H](CCCNC(=N)N)NC(=O)[C@H](Cc1c[nH]cn1)NC(=O)[C@H](CC(C)C)NC(=O)[C@H](Cc1ccccc1)NC(=O)[C@H](CCC(=O)O)NC(=O)[C@H](C)NC(=O)[C@H](CC(C)C)NC(=O)[C@H](CCCNC(=N)N)NC(=O)[C@H](CCC(N)=O)NC(=O)[C@@H](NC(=O)[C@H](C)NC(=O)[C@@H]1CSSC[C@H](NC(=O)[C@H](CCCN)NC(=O)[C@@H](CCCNC(=N)N)NC(=O)[C@@H](CCCNC(=N)N)NC(=O)COCCOCCNC(=O)COCCOCCNC(=O)CC[C@H](NC(=O)CCCCCCCCCCCCCCCCC(=O)O)C(=O)O)C(=O)N[C@@H](CC(N)=O)C(=O)N[C@@H]([C@@H](C)O)C(=O)N[C@@H](C)C(=O)N[C@@H]([C@@H](C)O)C(=O)N1)[C@@H](C)O)C(=O)N[C@@H](CC(C)C)C(=O)N1CCC[C@H]1C(=O)N1CCC[C@H]1C(=O)N[C@H](C(=O)N[C@@H](CC(N)=O)C(=O)N[C@H](C(=O)NCC(=O)N[C@@H](CO)C(=O)N[C@@H](CC(N)=O)C(=O)N[C@H](C(=O)N[C@@H](Cc1ccc(O)cc1)C(N)=O)[C@@H](C)O)C(C)C)[C@@H](C)O [Example 120, N-alpha-[2-(2-{2-[2-(2-{2-[(S)-4-Carboxy-4-(17-carboxyheptadecanoylamino)butyrylamino]ethoxy}ethoxy)acetylamino]ethoxy}ethoxy)acetyl]-D-Arg-D-Arg-[Orn1,Glu14,His17,Arg18]-pramlintide] ({C18 diacid-γGlu-AEEA-AEEA}-[dR][dR][Orn]CNTATCATQRLAEFLHRSSNNFGPILPPTNVGSNTY-NH2; disulfide 4-9 (inferred))	53	2		
